Patent publication US20110143948A1, “MOLECULAR SIGNATURES AND BIOMARKERS ASSOCIATED WITH MELANOMA AND METHODS OF USE THEREOF” (priority 2008, published 2011)

System: ncRNAs (SEQ ID NO 28-89)
Experiment: ncRNA arrays of melanocytes, keratinocytes, normal skin, melanoma cell lines and patient samples
Design: species or system human
Details: for ncRNA array expression, patient 2: melanoma patient 2 sample compared to normal skin; for ncRNA array expression, patient 3: melanoma patient 3 sample compared to normal skin; for ncRNA array expression, patient 4: melanoma patient 4 sample compared to normal skin; for ncRNA array expression, patient 5: melanoma patient 5 sample compared to normal skin; for ncRNA array expression, patient 6: melanoma patient 6 sample compared to normal skin; for ncRNA array expression, patient 7: melanoma patient 7 sample compared to normal skin; for ncRNA array expression, patient 8: melanoma patient 8 sample compared to normal skin; for ncRNA array expression, patient 9: melanoma patient 9 sample compared to normal skin; for ncRNA array expression, patient 10: melanoma patient 10 sample compared to normal skin; for ncRNA array expression, patient 19: melanoma patient 19 sample compared to normal skin; for ncRNA array expression, patient 20: melanoma patient 20 sample compared to normal skin; for ncRNA array expression, patient 21: melanoma patient 21 sample compared to normal skin; for ncRNA array expression, patient 22: melanoma patient 22 sample compared to normal skin; for ncRNA array expression, patient 23: melanoma patient 23 sample compared to normal skin; for ncRNA array expression, patient 24: melanoma patient 24 sample compared to normal skin; for ncRNA array expression, patient 25: melanoma patient 25 sample compared to normal skin; for ncRNA array expression, patient 26: melanoma patient 26 sample compared to normal skin; for ncRNA array expression, patient 27: melanoma patient 27 sample compared to normal skin; for ncRNA array expression, patient 28: melanoma patient 28 sample compared to normal skin; for ncRNA array expression, patient 29: melanoma patient 29 sample compared to normal skin; for ncRNA array expression, patient 30: melanoma patient 30 sample compared to normal skin
Description: An ncRNA array platform that contains over 10,000 putative (>200 nt) ncRNAs including most of the known ncRNAs in mouse and human was conducted to evaluate ncRNAs within melanoma. Lack of coding potential was estimated by an algorithm that scores various characteristics of protein-coding genes, including open reading frame length, synonymous/non-synonymous base substitution rates and similarity to known proteins. These arrays provide the first generation of tools designed to analyze the dynamic expression of a large subset of ncRNAs in human and mouse and to identify candidate genes for more detailed functional analysis. In addition to the ncRNA content, probes targeting mRNA content from RefSeq are also included, allowing discovery of coordinated expression with associated protein-coding genes. The result of these assays is a list of ncRNA genes (i.e. SEQ ID NO 28-89) and maps of their sequence boundaries. We have profiled total RNA isolated from melanocytes, keratinocytes, normal human skin, melanoma cell lines and melanoma patient samples to identify differentially expressed ncRNAs in cell lines and tissues. ncRNAs expression in all tested samples were compared to either melanocytes or normal skin. We have identified a group of ncRNAs that are specific for (a) melanocytes (b) Keratinocytes (c) Melanoma cell lines (d) Melanoma patients. […] Probe DNA sequences for this array include: AF086032 (SEQ ID NO 107) […] BC071821 (SEQ ID NO 108) […] C AK130193 (SEQ ID NO 109) […] AL109719 (SEQ ID NO 110) […] AF085888 (SEQ ID NO 111) […] T BC033879 (SEQ ID NO 112) […] AA AK024556 (SEQ ID NO 113) […] Probe nomenclature is standard genebank IDs given by NCBI and other organizations.
Keratinocytes specific signatures were subtracted and resultant ncRNAs were validated by qRT-PCR and Northern blots. Results point out the presence of a group of melanoma specific ncRNAs (i.e. SEQ ID NO 28-89).

Substance	ncRNA array expression, patient 2	ncRNA array expression, patient 3	ncRNA array expression, patient 4	ncRNA array expression, patient 5	ncRNA array expression, patient 6	ncRNA array expression, patient 7	ncRNA array expression, patient 8	ncRNA array expression, patient 9	ncRNA array expression, patient 10	ncRNA array expression, patient 19	ncRNA array expression, patient 20	ncRNA array expression, patient 21	ncRNA array expression, patient 22	ncRNA array expression, patient 23	ncRNA array expression, patient 24	ncRNA array expression, patient 25	ncRNA array expression, patient 26	ncRNA array expression, patient 27	ncRNA array expression, patient 28	ncRNA array expression, patient 29	further results
SEQ ID NO 84 (TTATTAAAAGGACTGAGGATCATGTGTGTTGGTGTGTCCCGGAGTCTGCTCTAAGGTAAA; listed as DNA, chemistry not given here; listed as Homo sapiens)	1.997	1.789	1.046	0.9959	0.3741	2.005	1.104	1.55	0.2561	1.044	1.668	1.56	2.01	2.078	1.532	1.329	1.373	1.88	1.062	1.558	ncRNA array expression, patient 30: 1.105
SEQ ID NO 57 (TTGTTGTTTTGGGAGATACCCTGTTTAGCCTGAAAGGATTGAGATACTGTAATTGCTATG; listed as DNA, chemistry not given here; listed as Homo sapiens)	1.808	2.081	1.613	2.211	1.68	0.6099	1.985	0.645	0.5023	0.2628	0.1922	0.9386	1.473	1.122	0.5436	1.559	1.989	1.446	1.064	0.4459	ncRNA array expression, patient 30: −0.5305
SEQ ID NO 83 (TCAGTTTGATGATTGGGCTAGGGAATGAAGCTTTGCCACTTAGGAGATAAACCCCATAAC; listed as DNA, chemistry not given here; listed as Homo sapiens)	−1.488	−1.164	−1.691	−1.156	−0.6047	−0.9496	−0.9534	−1.016	−1.381	−1.6448	−1.228	−1.45	−1.116	−1.855	−1.066	−1.422	−1.405	−1.43	−1.28	−1.1118	ncRNA array expression, patient 30: −1.73
